Assay results reported in PubChem BioAssay AID248 (DTP/NCI, 2004).
Several values for one entry are separate records, joined by “and”; a condition that tells them apart may be missing. Equal entries are not always repeated. Inconclusive results and toxic doses are left out.

System: L1210 leukemia ip in BDF1 mice, survival T/C
Test: NCI In Vivo Anticancer Drug Screen. Data for tumor model L1210 Leukemia (intraperitoneal) in B6D2F1 (BDF1) mice
Settings: endpoint: mean survival time, higher = longer survival
In short: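 Value reflects the ratio of survival in compound-treated mice to survival in vehicle-treated controls, with both groups carrying the same transplanted tumor.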

[1] = dose: 100.0 mg/kg/injection, schedule: Q01DX009 (ip), vehicle: Klucel (hydroxypropylcellulose) (HPC)
[2] = dose: 100.0 mg/kg/injection, schedule: Q04DX003 (ip), vehicle: Klucel (hydroxypropylcellulose) (HPC)
[3] = dose: 200.0 mg/kg/injection, schedule: Q01DX009 (ip), vehicle: Klucel (hydroxypropylcellulose) (HPC)
[4] = dose: 200.0 mg/kg/injection, schedule: Q04DX003 (ip), vehicle: Klucel (hydroxypropylcellulose) (HPC)
[5] = dose: 400.0 mg/kg/injection, schedule: Q01DX009 (ip), vehicle: Klucel (hydroxypropylcellulose) (HPC)
[6] = dose: 400.0 mg/kg/injection, schedule: Q04DX003 (ip), vehicle: Klucel (hydroxypropylcellulose) (HPC)
[7] = dose: 150.0 mg/kg/injection, schedule: Q04DX003 (ip), vehicle: saline with Tween-80
[8] = dose: 100.0 mg/kg/injection, schedule: Q04DX003 (ip), vehicle: saline with Tween-80
[9] = dose: 200.0 mg/kg/injection, schedule: Q04DX003 (ip), vehicle: saline with Tween-80
[10] = dose: 400.0 mg/kg/injection, schedule: Q04DX003 (ip), vehicle: saline with Tween-80
[11] = dose: 64.0 mg/kg/injection, schedule: Q04DX002 (ip), vehicle: saline with Tween-80

`Nc1nc(N)nc(-c2ccc(-n3nnc4ccccc4c3=O)cc2)n1` was tested, and the T/C [1] was 90 % of control, the T/C [2] was 96 % of control and the T/C [3] was 93 % of control. For the same molecule, the T/C [4] was 96 % of control, the T/C [5] was 90 % of control and the T/C [6] was 91 % of control.

With `O=C(O)C1C(C(=O)Nc2cc(C(F)(F)F)ccc2Cl)C2(Cl)C(Cl)=C(Cl)C1(Cl)C2(Cl)Cl` (stereo not given) the T/C (dose: 25.0 mg/kg/injection, schedule: Q01DX009 (ip), vehicle: Klucel (hydroxypropylcellulose) (HPC)) was 97 % of control, the T/C (dose: 50.0 mg/kg/injection, schedule: Q01DX009 (ip), vehicle: Klucel (hydroxypropylcellulose) (HPC)) was 95 % of control and the T/C (dose: 50.0 mg/kg/injection, schedule: Q04DX003 (ip), vehicle: Klucel (hydroxypropylcellulose) (HPC)) was 95 % of control. For the same molecule, the T/C [2] was 93 % of control and 91 % of control.

`CC(=O)CC(=O)n1c(=O)cc(C)c2ccccc21` was tested, and the T/C (dose: 75.0 mg/kg/injection, schedule: Q04DX003 (ip), vehicle: saline with Tween-80) was 117 % of control, the T/C [7] was 98 % of control and the T/C (dose: 300.0 mg/kg/injection, schedule: Q04DX003 (ip), vehicle: saline with Tween-80) was 98 % of control.

With `Nc1c(Cl)c(Cl)c(Cl)c(Cl)c1C(=O)O` the T/C (dose: 40.0 mg/kg/injection, schedule: Q01DX009 (ip), vehicle: Klucel (hydroxypropylcellulose) (HPC)) was 105 % of control, the T/C (dose: 75.0 mg/kg/injection, schedule: Q01DX009 (ip), vehicle: Klucel (hydroxypropylcellulose) (HPC)) was 103 % of control and the T/C (dose: 75.0 mg/kg/injection, schedule: Q04DX003 (ip), vehicle: saline) was 104 % of control. For the same molecule, the T/C [1] was 93 % of control, the T/C (dose: 150.0 mg/kg/injection, schedule: Q01DX009 (ip), vehicle: Klucel (hydroxypropylcellulose) (HPC)) was 97 % of control and 122 % of control and the T/C (dose: 150.0 mg/kg/injection, schedule: Q04DX003 (ip), vehicle: saline) was 98 % of control. The T/C [3] was 93 % of control.

In the case of `CC(=O)[O][Pb]([CH2]C(C)C)([CH2]C(C)C)[CH2]C(C)C`, the T/C (dose: 1.5 mg/kg/injection, schedule: Q01DX009 (ip), vehicle: Klucel (hydroxypropylcellulose) (HPC)) is reported as 97 % of control, the T/C (dose: 3.0 mg/kg/injection, schedule: Q01DX001 (ip), vehicle: Klucel (hydroxypropylcellulose) (HPC)) is reported as 91 % of control and the T/C (dose: 3.0 mg/kg/injection, schedule: Q01DX009 (ip), vehicle: Klucel (hydroxypropylcellulose) (HPC)) is reported as 95 % of control. The T/C (dose: 6.0 mg/kg/injection, schedule: Q01DX001 (ip), vehicle: Klucel (hydroxypropylcellulose) (HPC)) was 96 % of control, the T/C (dose: 6.0 mg/kg/injection, schedule: Q01DX009 (ip), vehicle: Klucel (hydroxypropylcellulose) (HPC)) was 95 % of control and the T/C (dose: 6.25 mg/kg/injection, schedule: Q01DX009 (ip), vehicle: Klucel (hydroxypropylcellulose) (HPC)) was 96 % of control. For the same molecule, the T/C (dose: 12.0 mg/kg/injection, schedule: Q01DX001 (ip), vehicle: Klucel (hydroxypropylcellulose) (HPC)) was 92 % of control and the T/C (dose: 12.5 mg/kg/injection, schedule: Q04DX002 (ip), vehicle: Klucel (hydroxypropylcellulose) (HPC)) was 96 % of control.

With `Cc1c(C=NCCNCCN=Cc2[nH]c(=S)[nH]c(=O)c2C)[nH]c(=S)[nH]c1=O` the T/C (dose: 44.0 mg/kg/injection, schedule: Q04DX003 (ip), vehicle: saline with Tween-80) was 97 % of control and 98 % of control, the T/C (dose: 66.0 mg/kg/injection, schedule: Q04DX003 (ip), vehicle: saline with Tween-80) was 106 % of control and 108 % of control and the T/C [8] was 103 % of control and 110 % of control. For the same molecule, the T/C [7] was 98 % of control and 104 % of control, the T/C [9] was 110 % of control and the T/C [10] was 104 % of control.

In the case of `COc1ccc(Nc2cc(C)nc(N)n2)cc1`, the T/C (dose: 25.0 mg/kg/injection, schedule: Q01DX Z (ip), vehicle: methylcellulose (MC)) is reported as 97 % of control and the T/C (dose: 50.0 mg/kg/injection, schedule: Q01DX Z (ip), vehicle: methylcellulose (MC)) is reported as 105 % of control.

`Cc1ccc([Si](C)(C)C)cc1` was tested, and the T/C (dose: 25.6 mg/kg/injection, schedule: Q04DX002 (ip), vehicle: saline with Tween-80) was 90 % of control, the T/C [11] was 104 % of control and the T/C (dose: 160.0 mg/kg/injection, schedule: Q04DX002 (ip), vehicle: saline with Tween-80) was 90 % of control. For the same molecule, the T/C (dose: 400.0 mg/kg/injection, schedule: Q04DX002 (ip), vehicle: saline with Tween-80) was 90 % of control.

With `O=C(Nc1cccc(C(F)(F)F)c1)C(Br)C(Br)c1ccccc1` (stereo not given) the T/C [1] was 103 % of control and the T/C [3] was 100 % of control.

In the case of `Cc1cccc(OCCOC(=O)Nc2ccccc2C(F)(F)F)c1`, the T/C [2] is reported as 87 % of control, the T/C [4] is reported as 88 % of control and the T/C [6] is reported as 90 % of control.

For `c1ccc(-c2nc3ccccc3nc2-c2ccccc2)cc1`, the T/C [2] was 96 % of control, the T/C [8] was 100 % of control and the T/C [4] was 86 % of control. The T/C [9] was 100 % of control, the T/C [6] was 90 % of control and the T/C [10] was 100 % of control.

For `CCOC(=O)C(CC(C)C)NC(=O)C(Cc1ccc(N(CCCl)CCCl)cc1)NC(C)=O` (stereo not given), the T/C (dose: 1.0 mg/kg/injection, schedule: Q01DX009 (ip), vehicle: other) was 108 % of control, the T/C (dose: 2.0 mg/kg/injection, schedule: Q01DX009 (ip), vehicle: other) was 108 % of control and the T/C (dose: 4.0 mg/kg/injection, schedule: Q01DX009 (ip), vehicle: other) was 120 % of control. For the same molecule, the T/C (dose: 8.0 mg/kg/injection, schedule: Q01DX009 (ip), vehicle: other) was 119 % of control, the T/C (dose: 16.0 mg/kg/injection, schedule: Q01DX009 (ip), vehicle: other) was 109 % of control and the T/C (dose: 32.0 mg/kg/injection, schedule: Q01DX009 (ip), vehicle: other) was 116 % of control. The T/C (dose: 62.5 mg/kg/injection, schedule: Q01DX001 (oral), vehicle: alcohol) was 102 % of control, the T/C (dose: 66.0 mg/kg/injection, schedule: Q01DX001 (ip), vehicle: olive oil, sesame oil, peanut oil) was 108 % of control and the T/C (dose: 100.0 mg/kg/injection, schedule: Q01DX001 (ip), vehicle: olive oil, sesame oil, peanut oil) was 110 % of control. For the same molecule, the T/C (dose: 125.0 mg/kg/injection, schedule: Q01DX001 (oral), vehicle: alcohol) was 101 % of control, the T/C (dose: 250.0 mg/kg/injection, schedule: Q01DX001 (oral), vehicle: alcohol) was 104 % of control and the T/C (dose: 250.0 mg/kg/injection, schedule: Q01DX001 (oral), vehicle: olive oil, sesame oil, peanut oil) was 113 % of control. For the same molecule, the T/C (dose: 500.0 mg/kg/injection, schedule: Q01DX001 (oral), vehicle: alcohol) was 113 % of control.

With `NC(=O)C1=CN(CCc2ccccc2)c2ccccc2C1S(=O)(=O)O` (stereo not given) the T/C (dose: 75.0 mg/kg/injection, schedule: Q01DX001 (ip), vehicle: other) was 98 % of control, the T/C (dose: 150.0 mg/kg/injection, schedule: Q01DX001 (ip), vehicle: other) was 94 % of control and the T/C (dose: 300.0 mg/kg/injection, schedule: Q01DX001 (ip), vehicle: other) was 96 % of control.

`[O]=[Sn]([c]1ccccc1)[c]1ccccc1` was tested, and the T/C [11] was 313 % of control.

With `CNC(=O)Nc1ccc(OC)cc1OC` the T/C [1] was 105 % of control, the T/C [2] was 106 % of control and the T/C [3] was 94 % of control. For the same molecule, the T/C [4] was 111 % of control, the T/C [5] was 98 % of control and the T/C [6] was 103 % of control.

In the case of `c1cc2c3c(c1)/C(=N\N=C1/CCN4CCCc5cccc1c54)CCN3CCC2`, the T/C (dose: 50.0 mg/kg/injection, schedule: Q01DX009 (ip), vehicle: saline with Tween-80) is reported as 91 % of control, the T/C (dose: 100.0 mg/kg/injection, schedule: Q01DX009 (ip), vehicle: saline with Tween-80) is reported as 89 % of control and the T/C [8] is reported as 92 % of control. For the same molecule, the T/C (dose: 200.0 mg/kg/injection, schedule: Q01DX009 (ip), vehicle: saline with Tween-80) was 92 % of control and the T/C [9] was 89 % of control.

In the case of `COc1ccccc1NC(=O)O/N=C/c1ccccn1`, the T/C (dose: 100.0 mg/kg/injection, schedule: Q04DX003 (ip), vehicle: other) is reported as 99 % of control, the T/C (dose: 200.0 mg/kg/injection, schedule: Q04DX003 (ip), vehicle: other) is reported as 90 % of control and the T/C (dose: 400.0 mg/kg/injection, schedule: Q04DX003 (ip), vehicle: other) is reported as 103 % of control.

`CCSc1nc(C=O)c(Cc2ccccc2)c(=O)[nH]1` was tested, and the T/C [2] was 101 % of control, the T/C [4] was 103 % of control and the T/C [6] was 98 % of control.
